Measured values: US20250011288A1 (BRISTOL-MYERS SQUIBB COMPANY, priority 2021, published 2025)
pEC50: −log10 of the molar value.

Biological target: T1, human RXFP1 (Homo sapiens, UniProt Q9HBX9)
T1 construct: expressed in transfected cells
T1 sequence (Q9HBX9 1-757): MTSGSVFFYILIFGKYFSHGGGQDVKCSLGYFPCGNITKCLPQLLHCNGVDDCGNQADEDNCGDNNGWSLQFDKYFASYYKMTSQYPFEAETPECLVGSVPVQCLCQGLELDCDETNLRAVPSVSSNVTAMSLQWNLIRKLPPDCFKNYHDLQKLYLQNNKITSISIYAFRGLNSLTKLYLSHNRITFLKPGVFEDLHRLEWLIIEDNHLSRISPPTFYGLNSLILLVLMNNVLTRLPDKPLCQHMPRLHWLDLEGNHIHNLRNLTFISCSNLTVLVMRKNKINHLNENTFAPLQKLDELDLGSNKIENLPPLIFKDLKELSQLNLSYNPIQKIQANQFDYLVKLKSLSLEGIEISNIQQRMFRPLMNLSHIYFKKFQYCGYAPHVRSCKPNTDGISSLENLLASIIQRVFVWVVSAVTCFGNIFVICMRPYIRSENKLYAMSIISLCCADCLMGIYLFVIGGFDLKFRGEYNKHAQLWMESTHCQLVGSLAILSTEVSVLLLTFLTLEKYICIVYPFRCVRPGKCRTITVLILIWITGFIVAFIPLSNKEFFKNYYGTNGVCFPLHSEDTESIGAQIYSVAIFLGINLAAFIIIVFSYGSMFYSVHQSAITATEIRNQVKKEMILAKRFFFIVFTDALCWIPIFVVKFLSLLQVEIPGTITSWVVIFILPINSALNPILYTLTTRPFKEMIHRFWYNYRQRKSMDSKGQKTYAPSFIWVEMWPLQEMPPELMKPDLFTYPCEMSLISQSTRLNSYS
Assay: human RXFP1 (hRXFP1) HEK293 cAMP assay (HTRF)
Type: cell-based
Conditions: HEK293 cells stably expressing human RXFP1, 30 min at room temperature
Experimental: RXFP1 Cyclic Adenosine Monophosphate (cAMP) Assays. […] Cells were dissociated and suspended in assay buffer. The assay buffer was HBSS buffer (with calcium and magnesium) containing 20 mM HEPES, 0.05% BSA, and 0.5 mM IBMX. Cells (3000 cells per well, except 1500 cell per well for HEK293 cells stably expressing human RXFP1) were added to 384-well Proxiplates (Perkin-Elmer). Cells were immediately treated with test compounds in DMSO (2% final) at final concentrations in the range of 0.010 nM to 50 µM. Cells were incubated for 30 min at room temperature. The level of intracellular cAMP was determined using the HTRF HiRange cAMP assay reagent kit (Cisbio) according to manufacturer's instructions. Solutions of cryptate conjugated anti-cAMP and d2 fluorophore-labelled cAMP were made in a supplied lysis buffer separately. Upon completion of the reaction, the cells were lysed with equal volume of the d2-cAMP solution and anti-cAMP solution. […] The potency and activity of a compound to […] cAMP production was then determined by fitting to a 4-parametric logistic equation from a plot of cAMP level versus compound concentrations.

SMILES | pEC50
COc1cc2c(cc1C(=O)N[C@H]1[C@@H](C(=O)Nc3ccc(F)c(C(F)(F)F)c3)[C@H]3CC[C@@H]1/C3=C\C1CC1)CN(CCS(C)(=O)=O)CC2 [Example 84, N-((1R,2R,3S,4R,Z)-7-(cyclopropylmethylene)-3-((4-fluoro-3-(trifluoromethyl)phenyl)carbamoyl)bicyclo[2.2.1]heptan-2-yl)-6-methoxy-2-(2-(methylsulfonyl)ethyl)-1,2,3,4-tetrahydroisoquinoline-7-carboxamide] | 6.48
COc1cnc(-c2cc([C@H](OC(=O)Nc3ccccc3)C(F)(F)F)ccc2F)nc1C(=O)N[C@@H]1C2CCC(/C2=C/C(F)(F)F)[C@@H]1C(=O)Nc1ccc(F)c(C(F)(F)F)c1 (stereo partly drawn) [Example 36, (1S)-2.2,2-trifluoro-1-[4-fluoro-3-(4-{[(2R,3S,7Z)-3-{[4-fluoro-3-(trifluoromethyl)phenyl]carbamoyl}-7-(2,2,2-trifluoroethylidene)bicyclo[2. 2.1]heptan-2-yl]carbamoyl}-5-methoxypyrimidin-2-yl)phenyl]ethyl N-phenylcarbamate] | 7.20
O=C(O)c1ccc(F)c(-c2cnc(OCCO)c(C(=O)N[C@@H]3C4CCC(/C4=C/C(F)(F)F)[C@@H]3C(=O)Nc3ccc(F)c(C(F)(F)F)c3)n2)c1 (stereo partly drawn) [Example 47, 4-Fluoro-3-(6-{[(2R,3S,7Z)-3-{[4-fluoro-3-(trifluoromethyl)phenyl]carbamoyl}-7-(2,2,2-trifluoroethylidene)bicyclo[2.2.1]heptan-2-yl]carbamoyl}-5-(2-hydroxyethoxy)pyrazin-2-yl)benzoic acid] | 6.70
COc1ccc(-c2ccc(C(=O)O)cc2)nc1C(=O)N[C@@H]1C2CCC(C2=C(C)C)[C@@H]1C(=O)Nc1ccc(F)c(C(F)(F)F)c1 (stereo partly drawn) [Example 22, 4-(6-{[(2R,3S)-3-{[4-fluoro-3-(trifluoromethyl)phenyl]carbamoyl}-7-(propan-2-ylidene)bicyclo [2.2.1]heptan-2-yl]carbamoyl}-5-methoxypyridin-2-yl)benzoic acid] | 5.77
COc1ncc(C(=O)N2CC3(COC3)C2)cc1C(=O)N[C@H]1[C@@H](C(=O)Nc2ccc(F)c(C(F)(F)F)c2)[C@H]2CC[C@@H]1/C2=C\C1CC1 [Example 76, N-[(1R,2R, 3S,4R,7Z)-7-(cyclopropyl-methylidene)-3-{[4-fluoro-3-(trifluoromethyl)phenyl]carbamoyl}bicyclo[2.2.1]heptan-2-yl]-2-methoxy-5-{2-oxa-6-azaspiro[3.3]heptane-6-carbonyl}pyridine-3-carboxamide] | 7.19
O=C(N[C@@H]1C2CCC(/C2=C/C(F)(F)F)[C@@H]1C(=O)Nc1ccc(F)c(C(F)(F)F)c1)c1cc(Br)ncc1OCCO (stereo partly drawn) [Example 45, 2-Bromo-N-[(2R,3S,7Z)-3-{[4-fluoro-3-(trifluoromethyl)phenyl]carbamoyl}-7-(2,2,2-trifluoroethylidene)bicyclo[2. 2.1]heptan-2-yl]-5-(2-hydroxyethoxy) pyridine-4-carboxamide] | 6.25
COc1cnccc1C(=O)N[C@@H]1C2CCC(C2=C(C)C)[C@@H]1C(=O)Nc1ccc(F)c(C(F)(F)F)c1 (stereo partly drawn) [Example 6, N-[(2R,3S)-3-{[4-fluoro-3-(trifluoromethyl)phenyl]carbamoyl}-7-(propan-2-ylidene)bicyclo [2.2.1]heptan-2-yl]-3-methoxypyridine-4-carboxamide] | 5.96

Stronger by pEC50, values ahead:

pEC50 | SMILES
8.34 | COc1ncc(C2=NOC3CC(C(OC(=O)Nc4ccccc4)C4CC4)CC23)cc1C(=O)N[C@@H]1C2CCC(/C2=C/C2CCCC2)[C@@H]1C(=O)Nc1ccc(F)c(C(F)(F)F)c1 (stereo partly drawn) [Example 162, [3-(5-{[(2R,3S,7Z)-7-(cyclopentyl-methylidene)-3-{[4-fluoro-3-(trifluoromethyl)phenyl]carbamoyl}bicyclo[2.2.1]heptan-2-yl]carbamoyl}-6-methoxypyridin-3-yl)-3aH,4H,5H,6H, 6aH-cyclopenta[d][1,2]oxazol-5-yl](cyclopropyl) methyl N-phenylcarbamate]
8.44 | COc1ncc(C2=NOC3CC(C(O)C4CC4)CC23)cc1C(=O)N[C@H]1[C@@H](C(=O)Nc2ccc(F)c(C(F)(F)F)c2)[C@H]2CC[C@@H]1/C2=C\C1CC1 (stereo partly drawn) [Example 111, 5-(5-(cyclopropyl (hydroxy)methyl)-3a,5,6,6a-tetrahydro-4H-cyclopenta[d]isoxazol-3-yl)-N-((1R,2R,3S,4R,Z)-7-(cyclopropyl-methylene)-3-((4-fluoro-3-(trifluoromethyl)phenyl)carbamoyl)bicyclo[2.2.1]heptan-2-yl)-2-methoxynicotinamide]
8.46 | COc1ncc(C2=NOC3CC(C(C)O)CC23)cc1C(=O)N[C@H]1[C@@H](C(=O)Nc2ccc(F)c(C(F)(F)F)c2)[C@H]2CC[C@@H]1/C2=C\C1CC1 (stereo partly drawn) [Example 110, N-((1R,2R,3S, 4R,Z)-7-(cyclopropyl-methylene)-3-((4-fluoro-3-(trifluoromethyl)phenyl)carbamoyl)bicyclo[2.2.1]heptan-2-yl)-5-(5-(1-hydroxyethyl)-3a,5,6,6a-tetrahydro-4H-cyclopenta[d]isoxazol-3-yl)-2-methoxy-nicotinamide]
8.46 | COc1ncc(C2=NOC3CC(O)CC23)cc1C(=O)N[C@H]1[C@@H](C(=O)Nc2ccc(F)c(C(F)(F)F)c2)[C@H]2CC[C@@H]1/C2=C\C1CCC1 (stereo partly drawn) [Example 117, N-((1R,2R,3S,4R,Z)-7-(cyclobutyl-methylene)-3-((4-fluoro-3-(trifluoromethyl)phenyl)carbamoyl)bicyclo[2.2.1]heptan-2-yl)-5-(5-hydroxy-3a,5,6,6a-tetrahydro-4H-cyclopenta[d]isoxazol-3-yl)-2-methoxynicotinamide]
8.48 | COc1ncc(C2=NOC3CC(C(O)C(F)(F)F)CC23)cc1C(=O)N[C@H]1[C@@H](C(=O)N[C@H](C)C2(C)CC2)[C@H]2CC[C@@H]1/C2=C\C1CC(F)(F)C1 (stereo partly drawn) [Example 170, N-[(1R,2R,3S,4R, 7Z)-7-[(3,3-difluorocyclobutyl)methylidene]-3-{[(1R)-1-(1-methylcyclo-propyl)ethyl]carbamoyl}bicyclo[2.2.1]heptan-2-yl]-2-methoxy-5-[5-(2,2,2-trifluoro-1-hydroxyethyl)-3aH,4H,5H,6H, 6aH-cyclopenta[d] [1,2]oxazol-3-yl]pyridine-3-carboxamide]
8.51 | COc1ncc(C2=NOC3CC(CO)CC23)cc1C(=O)N[C@H]1[C@@H](C(=O)Nc2ccc(F)c(C(F)(F)F)c2)[C@H]2CC[C@@H]1/C2=C\c1cscn1 (stereo partly drawn) [Example 97, N-((1R,2R,3S,4R,Z)-3-((4-fluoro-3-(trifluoromethyl)phenyl)carbamoyl)-7-(thiazol-4-ylmethylene)bicyclo [2.2.1]heptan-2-yl)-5-(5-(hydroxymethyl)-3a,5,6,6a-tetrahydro-4H-cyclopenta[d]isoxazol-3-yl)-2-methoxy-nicotinamide]
8.57 | COc1ncc(C2=NOC3CC(CO)CC23)cc1C(=O)N[C@H]1[C@@H](C(=O)N[C@H](C)C2(C)CC2(F)F)[C@H]2CC[C@@H]1/C2=C\C(F)(F)F (stereo partly drawn) [Example 116, N-((1R,2R,3S,4R,Z)-3-(((1R)-1-(2,2-difluoro-1-methylcyclopropyl)ethyl)carbamoyl)-7-(2,2,2-trifluoroethylidene)bicyclo[2.2.1]heptan-2-yl)-5-(5-(hydroxymethyl)-3a,5,6,6a-tetrahydro-4H-cyclopenta[d]isoxazol-3-yl)-2-methoxynicotinamide]
8.68 | COc1ncc(C2=NO[C@@H]3C[C@H](CO)CN23)cc1C(=O)N[C@@H]1C2CCC(/C2=C/C2CCCC2)[C@@H]1C(=O)Nc1ccc(F)c(C(F)(F)F)c1 (stereo partly drawn) [Example 133, N-((1R,2R,3S,4R,Z)-7-(cyclopentyl-methylene)-3-((4-fluoro-3-(trifluoromethyl)phenyl)carbamoyl)bicyclo[2.2.1]heptan-2-yl)-5-((6S,7aR)-6-(hydroxymethyl)-5,6,7,7a-tetrahydropyrrolo [1,2-d][1,2,4]oxadiazo 1-3-yl)-2-methoxynicotinamide]
8.85 | COc1ncc(-c2cc([C@H](OC(=O)NC3CC3)C(F)(F)F)ccc2F)cc1C(=O)N[C@@H]1C2CCC(/C2=C/C2CCCC2)[C@@H]1C(=O)Nc1ccc(F)c(C(F)(F)F)c1 (stereo partly drawn) [Example 164, (1S)-1-[3-(5-{[(1R,2R,3S,4R, 7Z)-7-(cyclopentyl-methylidene)-3-{[4-fluoro-3-(trifluoromethyl)phenyl]carbamoyl}bicyclo[2.2.1]heptan-2-yl]carbamoyl}-6-methoxypyridin-3-yl)-4-fluorophenyl]-2,2,2-trifluoroethyl N-cyclopropylcar-bamate]
